# ChEMBL document CHEMBL3885861, “Open TG-GATES”
# Organism: Rattus norvegicus
# Test: Open TG-GATES - Regimen: Daily Repeat
# Format: toxicity, organism-based, Sprague-Dawley
# Design: regimen Daily Repeat, gender Male, age 6 weeks
# Settings: in vivo, po, 50 mg/kg, route gavage, dose level Low; for APTT / Bas / Eos / Fbg / Hb / Ht / Lym / MCH / MCHC / MCV / Mono / Neu / PT / Plat / RBC / Ret / WBC: tissue Blood; for KIDNEY_L / KIDNEY_R / KIDNEY_TOTAL: tissue Kidney; for LIVER: tissue Liver; for A/G / ALP / ALT / AST / BUN / CRE / Ca / Cl / DBIL / GLC / IP / K / LDH / Na / PL / RALB / TBIL / TC / TG / TP / gamma-GTP: tissue Plasma
smiles,measurement,setting,value
CN1C(=O)OC(C)(C)C1=O [TRIMETHADIONE],TERMINAL_BW,"72 h, time 3 day",239.4 g
same,APTT,"72 h, time 3 day",17.8 s
same,Bas,"72 h, time 3 day",0%
same,Eos,"72 h, time 3 day",1%
same,Fbg,"72 h, time 3 day",290.4 mg/dL
same,Hb,"72 h, time 3 day",13.8 g/dL
same,Ht,"72 h, time 3 day",41%
same,Lym,"72 h, time 3 day",74.8%
same,MCH,"72 h, time 3 day",21.2 pg
same,MCHC,"72 h, time 3 day",33.6%
same,MCV,"72 h, time 3 day",63.2 fL
same,Mono,"72 h, time 3 day",3%
same,Neu,"72 h, time 3 day",20.8%
same,PT,"72 h, time 3 day",13 s
same,Plat,"72 h, time 3 day",127.3 x10_4/uL
same,RBC,"72 h, time 3 day",649 x10_4/ul
same,Ret,"72 h, time 3 day",6.9%
same,WBC,"72 h, time 3 day",101.6 x10_2/uL
same,KIDNEY_L,"72 h, time 3 day",1 g
same,KIDNEY_R,"72 h, time 3 day",1 g
same,KIDNEY_TOTAL,"72 h, time 3 day",2 g
same,LIVER,"72 h, time 3 day",11.2 g
same,A/G,"72 h, time 3 day",0.9
same,ALP,"72 h, time 3 day",1701.8 IU/L
same,ALT,"72 h, time 3 day",40.4 IU/L
same,AST,"72 h, time 3 day",73.8 IU/L
same,BUN,"72 h, time 3 day",15.2 mg/dL
same,CRE,"72 h, time 3 day",0.2 mg/dL
same,Ca,"72 h, time 3 day",11.1 mg/dL
same,Cl,"72 h, time 3 day",106.4 meq/L
same,DBIL,"72 h, time 3 day",0.008 mg/dL
same,GLC,"72 h, time 3 day",178.4 mg/dL
same,IP,"72 h, time 3 day",6.8 mg/dL
same,K,"72 h, time 3 day",4.7 meq/L
same,LDH,"72 h, time 3 day",87.2 IU/L
same,Na,"72 h, time 3 day",141.6 meq/L
same,PL,"72 h, time 3 day",166 mg/dL
same,RALB,"72 h, time 3 day",2.6 g/dL
same,TBIL,"72 h, time 3 day",0.05 mg/dL
same,TC,"72 h, time 3 day",83 mg/dL
same,TG,"72 h, time 3 day",123.8 mg/dL
same,TP,"72 h, time 3 day",5.7 g/dL
same,gamma-GTP,"72 h, time 3 day",1 IU/L
same,TERMINAL_BW,"[…], time 7 day",283.2 g
same,TERMINAL_BW,"[…], time 14 day",331.1 g
same,TERMINAL_BW,"[…], time 28 day",426.4 g
same,APTT,"[…], time 7 day",18.9 s
same,Bas,"[…], time 7 day",0%
same,Eos,"[…], time 7 day",1.2%
same,Fbg,"[…], time 7 day",255.8 mg/dL
same,Hb,"[…], time 7 day",13.9 g/dL
same,Ht,"[…], time 7 day",41.1%
same,Lym,"[…], time 7 day",74.6%
same,MCH,"[…], time 7 day",21.1 pg
same,MCHC,"[…], time 7 day",33.9%
same,MCV,"[…], time 7 day",62.2 fL
same,Mono,"[…], time 7 day",2.2%
same,Neu,"[…], time 7 day",21.8%
same,PT,"[…], time 7 day",13.7 s
same,Plat,"[…], time 7 day",137 x10_4/uL
same,RBC,"[…], time 7 day",660.4 x10_4/ul
same,Ret,"[…], time 7 day",5.5%
same,WBC,"[…], time 7 day",92.6 x10_2/uL
same,APTT,"[…], time 14 day",21.8 s
same,Bas,"[…], time 14 day",0.2%
same,Eos,"[…], time 14 day",1%
same,Fbg,"[…], time 14 day",271.2 mg/dL
same,Hb,"[…], time 14 day",14.9 g/dL
same,Ht,"[…], time 14 day",43.7%
same,Lym,"[…], time 14 day",76%
same,MCH,"[…], time 14 day",20.9 pg
same,MCHC,"[…], time 14 day",34.2%
same,MCV,"[…], time 14 day",61.3 fL
same,Mono,"[…], time 14 day",2.2%
same,Neu,"[…], time 14 day",20.6%
same,PT,"[…], time 14 day",13.4 s
same,Plat,"[…], time 14 day",118 x10_4/uL
same,RBC,"[…], time 14 day",712.8 x10_4/ul
same,Ret,"[…], time 14 day",4.1%
same,WBC,"[…], time 14 day",104.6 x10_2/uL
same,APTT,"[…], time 28 day",19.5 s
same,Bas,"[…], time 28 day",0.4%
same,Eos,"[…], time 28 day",1.4%
same,Fbg,"[…], time 28 day",257.6 mg/dL
same,Hb,"[…], time 28 day",15.7 g/dL
same,Ht,"[…], time 28 day",45.3%
same,Lym,"[…], time 28 day",80.2%
same,MCH,"[…], time 28 day",19.8 pg
same,MCHC,"[…], time 28 day",34.6%
same,MCV,"[…], time 28 day",57.3 fL
same,Mono,"[…], time 28 day",2%
same,Neu,"[…], time 28 day",15.4%
same,PT,"[…], time 28 day",13.9 s
same,Plat,"[…], time 28 day",108.7 x10_4/uL
same,RBC,"[…], time 28 day",789.4 x10_4/ul
same,Ret,"[…], time 28 day",2.4%
same,WBC,"[…], time 28 day",118.6 x10_2/uL
same,KIDNEY_L,"[…], time 7 day",1.2 g
same,KIDNEY_R,"[…], time 7 day",1.2 g
same,KIDNEY_TOTAL,"[…], time 7 day",2.4 g
same,KIDNEY_L,"[…], time 14 day",1.3 g
same,KIDNEY_R,"[…], time 14 day",1.3 g
same,KIDNEY_TOTAL,"[…], time 14 day",2.6 g
same,KIDNEY_L,"[…], time 28 day",1.5 g
same,KIDNEY_R,"[…], time 28 day",1.5 g
same,KIDNEY_TOTAL,"[…], time 28 day",3 g
same,LIVER,"[…], time 7 day",13.1 g
same,LIVER,"[…], time 14 day",13.8 g
same,LIVER,"[…], time 28 day",16.2 g
same,A/G,"[…], time 7 day",0.8
same,ALP,"[…], time 7 day",1932.2 IU/L
same,ALT,"[…], time 7 day",44.4 IU/L
same,AST,"[…], time 7 day",76.8 IU/L
same,BUN,"[…], time 7 day",16.6 mg/dL
same,CRE,"[…], time 7 day",0.2 mg/dL
same,Ca,"[…], time 7 day",10.9 mg/dL
same,Cl,"[…], time 7 day",105.4 meq/L
same,DBIL,"[…], time 7 day",0.006 mg/dL
same,GLC,"[…], time 7 day",187.8 mg/dL
same,IP,"[…], time 7 day",7 mg/dL
same,K,"[…], time 7 day",4.2 meq/L
same,LDH,"[…], time 7 day",79.6 IU/L
same,Na,"[…], time 7 day",143 meq/L
same,PL,"[…], time 7 day",158 mg/dL
same,RALB,"[…], time 7 day",2.6 g/dL
same,TBIL,"[…], time 7 day",0.046 mg/dL
same,TC,"[…], time 7 day",75 mg/dL
same,TG,"[…], time 7 day",113.6 mg/dL
same,TP,"[…], time 7 day",5.8 g/dL
same,gamma-GTP,"[…], time 7 day",1.2 IU/L
same,A/G,"[…], time 14 day",0.8
same,ALP,"[…], time 14 day",1421.4 IU/L
same,ALT,"[…], time 14 day",40.4 IU/L
same,AST,"[…], time 14 day",71.2 IU/L
same,BUN,"[…], time 14 day",16.2 mg/dL
same,CRE,"[…], time 14 day",0.2 mg/dL
same,Ca,"[…], time 14 day",10.7 mg/dL
same,Cl,"[…], time 14 day",105.2 meq/L
same,DBIL,"[…], time 14 day",0.002 mg/dL
same,GLC,"[…], time 14 day",182.6 mg/dL
same,IP,"[…], time 14 day",6.9 mg/dL
same,K,"[…], time 14 day",4.3 meq/L
same,LDH,"[…], time 14 day",131.4 IU/L
same,Na,"[…], time 14 day",144.4 meq/L
same,PL,"[…], time 14 day",159 mg/dL
same,RALB,"[…], time 14 day",2.7 g/dL
same,TBIL,"[…], time 14 day",0.04 mg/dL
same,TC,"[…], time 14 day",72.4 mg/dL
same,TG,"[…], time 14 day",112.8 mg/dL
same,TP,"[…], time 14 day",6 g/dL
same,gamma-GTP,"[…], time 14 day",1 IU/L
same,A/G,"[…], time 28 day",0.8
same,ALP,"[…], time 28 day",1126.4 IU/L
same,ALT,"[…], time 28 day",33.8 IU/L
same,AST,"[…], time 28 day",63.8 IU/L
same,BUN,"[…], time 28 day",16.6 mg/dL
same,CRE,"[…], time 28 day",0.3 mg/dL
same,Ca,"[…], time 28 day",10.7 mg/dL
same,Cl,"[…], time 28 day",104 meq/L
same,DBIL,"[…], time 28 day",0.006 mg/dL
same,GLC,"[…], time 28 day",180.2 mg/dL
same,IP,"[…], time 28 day",5.3 mg/dL
same,K,"[…], time 28 day",4.3 meq/L
same,LDH,"[…], time 28 day",69.8 IU/L
same,Na,"[…], time 28 day",142 meq/L
same,PL,"[…], time 28 day",162 mg/dL
same,RALB,"[…], time 28 day",2.8 g/dL
same,TBIL,"[…], time 28 day",0.042 mg/dL
same,TC,"[…], time 28 day",73.6 mg/dL
same,TG,"[…], time 28 day",186.6 mg/dL
same,TP,"[…], time 28 day",6.2 g/dL
same,gamma-GTP,"[…], time 28 day",1.2 IU/L
